Test results reported in EP4624497A1, “PHOSPHOEN[…] PROBE, PREPARATION METHOD THEREFOR AND APPLICATION THEREOF” (priority 2022, dated 2024).

Experiments:
Experiment in all cases: phosphoenolpyruvate titration of purified optical probe (fluorescence ratio)
Type in all cases: binding
Conditions in all cases: phosphoenolpyruvate 0 to 10 mM, purified probe treated 10 minutes, ex 420/485 nm, em 528 nm
[1] = target: T1, Thermus thermophilus TtPFK optical probe 254/255-TtPFK-cpYFP variant, TtPFK Q254V/R255I/G256H, cpYFP N246W (Thermus thermophilus, UniProt P21777, form not given/G256H/Q254V/R255I)
T1 construct: the numbering corresponds to the full length of the phosphoenolpyruvate-sensitive polypeptide; His-tag; made in house; host or cells: E. coli BL21 (DE3)
Method: (§1) • 1. The expression vectors (for example, a phosphoenolpyruvate optical probe expression vector based on pCDF.) were transformed into BL21 (DE3) cells, incubated inverted overnight, and the clones were picked from the plates into 250 mL Erlenmeyer flasks, placed in a shaker at 37 °C and incubated at 220 rpm to OD=0.4-0.8, then 1/1000 (V/V) of IPTG (1 M) was added to induce expression at 18 °C for 24-36 hours. • 2. Upon completion of inducible expression, cells were harvested by centrifugation at 4000 rpm for 30 min, resuspended in 50 mM phosphate buffer and disrupted ultrasonically until the broth were clear, centrifuged at 9600 rpm at 4 °C for 20 min. • 3. The centrifuged supernatant was used to obtain protein by purification through a self-packed nickel column affinity chromatography column, and the protein obtained after nickel column affinity chromatography was further used to obtain protein dissolved in 100 mM HEPES buffer (pH 7.4). • 4. After purified proteins were subjected to SDS-PAGE, probes were diluted to a protein solution having a final concentration of 0.2-5 µM using assay buffer (100 mm HEPES, 100 mM NaCl, pH 7.4). Phosphoenolpyruvate was formulated as a stock solution at a final concentration of 50 mM with the assay buffer (100 mM HEPES, 100 mM NaCl, pH 7.4). • 5. 100 µl 1 µM of protein solution was taken, incubated at 37 °C for 10 min, phosphoenolpyruvate was added for titration, and the fluorescence intensity of 528 nm emission after 420 nm and 485 nm fluorescence excitation of the protein was measured. The fluorescence excitation and emission determination of the samples were done using a multifunctional fluorescence microplate reader. • 6. 100 µl 1 µM of protein solution was taken, incubated at 37 °C for 10 min, and phosphoenolpyruvate was added to determine the absorption and fluorescence spectra of the proteins. Determination of the absorption and fluorescence spectra of the samples was done by spectrophotometer and spectrofluorometer.
(§2) The recombinant plasmids of the mutation library were transformed into BL21 (DE3) to induce expression, and the purified probe protein was subjected to phosphoenolpyruvate-responsive screening, dividing the detection signal of the fusion fluorescent protein containing 2 mM phosphoenolpyruvate by that of the fusion fluorescent protein without phosphoenolpyruvate. […]

[2] = target: T2, Thermus thermophilus TtPFK optical probe 254/255-TtPFK-cpYFP variant, TtPFK I253V/Q254L/R255L/G256H, cpYFP Y1S (Thermus thermophilus, UniProt P21777, form not given/G256H/I253V/Q254L/R255L)
T2 construct: the numbering corresponds to the full length of the phosphoenolpyruvate-sensitive polypeptide; His-tag; made in house; host or cells: E. coli BL21 (DE3)
Method: as §1, §2

[3] = target: T3, Thermus thermophilus phosphofructokinase TtPFK (SEQ ID NO: 1) optical probe 254/256-TtPFK-cpYFP, no mutation (Thermus thermophilus, UniProt P21777, form not given/R255N)
T3 construct: the numbering corresponds to the full length of the phosphoenolpyruvate-sensitive polypeptide; His-tag; made in house; host or cells: E. coli BL21 (DE3)
Method: as §1, §2

[4] = target: T4, Thermus thermophilus TtPFK optical probe 254/255-TtPFK-cpYFP variant, TtPFK I253N/Q254L/R255L/G256F, cpYFP Y1S/N246F (Thermus thermophilus, UniProt P21777, form not given/G256F/I253N/Q254L/R255L)
T4 construct: the numbering corresponds to the full length of the phosphoenolpyruvate-sensitive polypeptide; His-tag; made in house; host or cells: E. coli BL21 (DE3)
Method: as §1, §2

[5] = target: T5, Thermus thermophilus TtPFK optical probe 254/255-TtPFK-I253K/Q254L/R255L/G256F-cpYFP-Y1S, SEQ ID NO: 12 (Thermus thermophilus, UniProt P21777, form not given/G256F/I253K/Q254L/R255L)
T5 construct: the numbering corresponds to the full length of the phosphoenolpyruvate-sensitive polypeptide; His-tag; made in house; host or cells: E. coli BL21 (DE3)
Method: as §1, §2

[6] = target: T6, Thermus thermophilus TtPFK optical probe 254/256-TtPFK-cpYFP variant, TtPFK I253S/Q254L/G256V/G257L, cpYFP Y1T/N246F (Thermus thermophilus, UniProt P21777, form not given/G256V/G257L/I253S/Q254L)
T6 construct: the numbering corresponds to the full length of the phosphoenolpyruvate-sensitive polypeptide; His-tag; made in house; host or cells: E. coli BL21 (DE3)
Method: as §1, §2

[7] = target: T7, Thermus thermophilus phosphofructokinase TtPFK (SEQ ID NO: 1) optical probe 254/255-TtPFK-cpYFP, no mutation, SEQ ID NO: 10 (Thermus thermophilus, UniProt P21777)
T7 construct: His-tag; made in house; host or cells: E. coli BL21 (DE3)
Method: as §1, §2

[8] = target: T8, Thermus thermophilus TtPFK optical probe 254/256-TtPFK-cpYFP variant, TtPFK I253D/Q254L/G256V/G257L, cpYFP Y1T/N246F (Thermus thermophilus, UniProt P21777, form not given/G256V/G257L/I253D/Q254L)
T8 construct: the numbering corresponds to the full length of the phosphoenolpyruvate-sensitive polypeptide; His-tag; made in house; host or cells: E. coli BL21 (DE3)
Method: as §1, §2

[9] = target: T9, Thermus thermophilus TtPFK optical probe 254/255-TtPFK-cpYFP variant, TtPFK I253V/Q254A/R255F/G256Y, cpYFP N246F (Thermus thermophilus, UniProt P21777, form not given/G256Y/I253V/Q254A/R255F)
T9 construct: the numbering corresponds to the full length of the phosphoenolpyruvate-sensitive polypeptide; His-tag; made in house; host or cells: E. coli BL21 (DE3)
Method: as §1, §2

[10] = target: T10, Thermus thermophilus TtPFK optical probe 254/255-TtPFK-cpYFP variant, TtPFK Q254L/R255L/G256H, cpYFP Y1S (Thermus thermophilus, UniProt P21777, form not given/G256H/Q254L/R255L)
T10 construct: the numbering corresponds to the full length of the phosphoenolpyruvate-sensitive polypeptide; His-tag; made in house; host or cells: E. coli BL21 (DE3)
Method: as §1, §2

[11] = target: T11, Thermus thermophilus TtPFK optical probe 254/255-TtPFK-cpYFP variant, TtPFK I253V/Q254L/R255F/G256Y, cpYFP Y1H/N246F (Thermus thermophilus, UniProt P21777, form not given/G256Y/I253V/Q254L/R255F)
T11 construct: His-tag; made in house; host or cells: E. coli BL21 (DE3)
Method: as §1, §2

[12] = target: T12, Thermus thermophilus TtPFK optical probe 254/255-TtPFK-cpYFP variant, TtPFK I253Y/Q254I (Thermus thermophilus, UniProt P21777, form not given/I253Y/Q254I/Q254N)
T12 construct: the numbering corresponds to the full length of the phosphoenolpyruvate-sensitive polypeptide; His-tag; made in house; host or cells: E. coli BL21 (DE3)
Method: as §1, §2

[13] = target: T13, Thermus thermophilus TtPFK optical probe 254/256-TtPFK-I253Q/Q254L/G256V/G257L-cpYFP-Y1T/N246F (Thermus thermophilus, UniProt P21777, form not given/G256V/G257L/I253Q/Q254L)
T13 construct: the numbering corresponds to the full length of the phosphoenolpyruvate-sensitive polypeptide; His-tag; made in house; host or cells: E. coli BL21 (DE3)
Method: as §1, §2

C=C(OP(=O)(O)O)C(=O)O [phosphoenolpyruvate, Phosphoenolpyruvate]
Kd [1]: 11.4 µM | Kd [2]: 5.64 µM | Kd [3]: 2.15 µM | Kd [4]: 9.66 µM | Kd [5]: 17.5 µM | Kd [6]: 8.93 µM | Kd [7]: 0.8 µM | Kd [8]: 13.4 µM | Kd [9]: 32 µM | Kd [10]: 8.5 µM | Kd [11]: 81.7 µM | Kd [12]: 1.55 µM | Kd [13]: 13.1 µM
